# Entries after “also recorded” stand apart in the source; their conditions may differ.
# System: L. (L.) amazonensis LTB0016, VE98MR and VE2000MM promastigotes
# Test: Mitochondrial membrane potential (ΔΨm), JC-1 fluorescence
# Assay type: cell-based, Leishmania amazonensis
# Conditions: promastigotes of LTB0016, VE98MR, 48 h, 18: 1 and 2 µM, 22: 2 and 4 µM, vs untreated
# Protocol: To evaluate the mitochondrial membrane potential (ΔΨm), the fluorescent compound JC-1 (5,5′,6,6′-tetrachloro-1,1′,3,3′-tetraethylbenzimidazolocarbocyanine iodide) was used, according to a modification of a previously described method. Exponential phase promastigotes were suspended at 26 °C, in RPMIc without phenol red, in a volume of 1 mL, at a cell density of 1 × 10^7 parasites mL^−1. The parasites were left to grow for 48 h, in the presence and absence of the test compounds. Then, after centrifuging (500× g for 10 min) and washing the parasites twice with PBS, they were resuspended in 200 µL of HEPES-G, and placed in 96-well plates. […] Finally, fluorescence was measured in a Victor^2 Wallac spectrofluorometer (Perkin Elmer, Turku, Finland) at the appropriate wavelengths (ex: 485 nm/em: 535 and 580 nm). As the mitochondrial membrane is polarized, JC-1 produces intra-mitochondrial aggregates “J-aggregates” that emit a red fluorescence (λ 590 nm). Mitochondrial membrane depolarization induces JC-1 monomeric conformation in the cytoplasm, then the fluorescence turns green (λ 530 nm). The red/green ratio of fluorescence then is an indirect measurement of the mitochondrial membrane potential. A more depolarized mitochondria means a lower ratio of red/green fluorescence.
# Relative fluorescence (RF) was calculated, where RF = 580 nm fluorescence/535 nm fluorescence (red/green). […]
compound,measurement,value
C=C(C)C1CCC2(C=NO)CCC3(C)C(CCC4C5(C)CCC(=NO)C(C)(C)C5CCC43C)C12 (stereo not shown) [Compound 18],Effect on mitochondrial membrane potential (ΔΨm),significantly depolarized; also recorded: depolarizes ΔΨm in a concentration-dependent way

# Reference: paper PMC7913927, “Leishmanicidal Activity of Betulin Derivatives in Leishmania amazonensis; Effect on Plasma and Mitochondrial Membrane Potential, and Macrophage Nitric Oxide and Superoxide Production” (Microorganisms, 2021)
